This is an account of results in BindingDB's records for patent US20250313563 (The Broad Institute, 2025).

Assay [1] concerns the target Glycogen synthase kinase-3 beta (Homo sapiens, UniProt P49841). The assay can be described thus: TR-FRET Assay. In a few lines:
(§1)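 Signal is measured as TR-FRET between a terbium anti-phospho-Ser641 antibody and streptavidin-d2, added after an EDTA quench. Compounds are preincubated 30 min in assay buffer.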
On the technique in general: TR-FRET usually uses a lanthanide donor and a delayed reading to cut background.

Assay [2] addresses Glycogen synthase kinase-3 alpha (Homo sapiens, UniProt P49840). The assay can be described thus: TR-FRET Assay. The essentials:
as §1

Several values for one entry are separate records, joined by “and”; a condition that tells them apart may be missing. Equal values may be shown once. A value given as a limit tells only on which side of the number the result lay.

Glycogen synthase kinase-3 alpha, sequence (P49840 whole entry): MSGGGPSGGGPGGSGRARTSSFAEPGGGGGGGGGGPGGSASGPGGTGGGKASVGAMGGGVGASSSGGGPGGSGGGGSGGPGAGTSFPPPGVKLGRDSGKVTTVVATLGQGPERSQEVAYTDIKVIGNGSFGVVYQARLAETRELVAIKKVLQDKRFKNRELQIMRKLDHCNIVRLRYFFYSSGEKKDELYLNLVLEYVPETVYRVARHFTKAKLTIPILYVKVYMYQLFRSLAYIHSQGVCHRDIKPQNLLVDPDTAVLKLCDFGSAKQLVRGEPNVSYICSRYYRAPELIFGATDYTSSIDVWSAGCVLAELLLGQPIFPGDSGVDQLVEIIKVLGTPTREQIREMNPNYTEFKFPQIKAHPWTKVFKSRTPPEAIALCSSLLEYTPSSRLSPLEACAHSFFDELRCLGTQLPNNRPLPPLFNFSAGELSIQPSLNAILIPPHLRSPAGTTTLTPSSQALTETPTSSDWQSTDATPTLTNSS
Glycogen synthase kinase-3 beta, sequence (P49841 whole entry): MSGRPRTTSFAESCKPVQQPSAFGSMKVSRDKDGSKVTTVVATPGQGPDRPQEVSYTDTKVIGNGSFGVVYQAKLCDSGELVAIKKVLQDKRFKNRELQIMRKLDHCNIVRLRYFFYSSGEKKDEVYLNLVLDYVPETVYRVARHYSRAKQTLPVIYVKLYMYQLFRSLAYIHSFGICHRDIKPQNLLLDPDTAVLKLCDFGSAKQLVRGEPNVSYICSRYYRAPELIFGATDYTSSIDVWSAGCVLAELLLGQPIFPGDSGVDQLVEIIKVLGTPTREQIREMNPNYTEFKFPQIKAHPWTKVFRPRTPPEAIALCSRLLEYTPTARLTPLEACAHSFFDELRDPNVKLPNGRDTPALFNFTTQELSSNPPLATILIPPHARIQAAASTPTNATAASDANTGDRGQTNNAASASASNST

As to `CC[C@]1(c2cccc(-c3ccnc(N(C)C)c3)c2)C2=C(CC(C)(C)CC2=O)NC2N=NC(C)=C21` (some centres not stated) [US20250313563, Compound 913048], the half-inhibitory concentration (IC50) – broadly, the concentration that inhibits the measured activity by half – in assay [1] lay within 1000 to 5000 nM; in assay [2], 100 to 1000 nM.
`CC[C@@]1(c2cccc(-c3ccnnc3)c2)C2=CN=NC2NC2=C1C(=O)CC(C)(C)C2` (some centres not stated) [US20250313563, Compound 929454]: the IC50 in assay [1] was < 100 nM and 1000 to 5000 nM; in assay [2], < 100 nM and 100 to 1000 nM.
As for `CC[C@@]1(c2cccc(C(F)(F)F)c2)C2=CN=NC2NC2=C1C(=O)N(c1cnc(OC)nc1)CC2` (some centres not stated) [US20250313563, Compound 949127], the figures for the half-maximal inhibitory concentration (IC50) in assay [1] and in assay [2] were greater than 5000 nM and 1000 to 5000 nM, respectively.
The matching figures for `CC[C@]1(c2cccc(-c3cnn(C)c3C)c2)C2=CN=NC2NC2=C1C(=O)NC(C)(C)C2` (some centres not stated) [US20250313563, Compound 945617]: greater than 5000 nM and 1000 to 5000 nM.
In the case of `CCC1(c2cccc(-c3ccncc3C)c2)C2=C(CC(C)(C)CC2=O)NC2N=NC(C(F)(F)F)=C21` (configuration not stated) [US20250313563, Compound 945527], the IC50 in assay [1] is < 100 nM and 100 to 1000 nM; in assay [2], less than 100 nM.
As to `CCC1(c2cccc(N(C)c3cccc(C)n3)c2)C2=CN=NC2NC2=C1C(=O)CC(C)(C)C2` (configuration not stated) [US20250313563, Compound 913255], the half-inhibitory concentration (IC50) was 100 to 1000 nM in assay [1] and less than 100 nM in assay [2].
The matching figures for `CC[C@]1(c2cccc(C(F)(F)F)c2)C2=C(N=NC2)NC2=C1C(=O)N(C)C2(C)C` [US20250313563, Compound 918251]: greater than 5000 nM and greater than 5000 nM.
With `CC[C@]1(c2cccc(-c3cnn(C)c3)c2)C2=C(CC(C)(C)NC2=O)NC2N=NC(F)=C21` (some centres not stated) [US20250313563, Compound 949002], the IC50 in assay [1] was greater than 5000 nM; in assay [2] it was 1000 to 5000 nM.
Turning to `CC[C@@]1(c2cccc(C(F)(F)F)c2)C2=CN=NC2NC2=C1C(=O)N[C@@H](C)C2` (some centres not stated) [US20250313563, Compound 912099], the IC50 in assay [1] and in assay [2] was greater than 5000 nM throughout.
As for `CCC1(c2cccc(-c3cc(C)ncc3OC)c2)C2=CN=NC2NC2=C1C(=O)CC(C)(C)C2` (configuration not stated) [US20250313563, Compound 945468], the concentration for half-maximal inhibition (IC50) was 100 to 1000 nM in assay [1] and less than 100 nM in assay [2].
Taken in the same sequence, the figures for `CC[C@]1(c2cccc(N3CCC3)c2)C2=CN=NC2NC2=C1C(=O)CC(C)(C)C2` (some centres not stated) [US20250313563, Compound 889631] were 100 to 1000 nM and 100 to 1000 nM.
Take `CC[C@@]1(c2ccccc2)C2=CN=NC2NC2=C1C(=O)[C@@H](F)C(C)(C)C2` (some centres not stated) [US20250313563, Compound 957403]: the IC50 was in the range of 1000 to 5000 nM in assay [1] and 100 to 1000 nM in assay [2].
Taken in the same sequence, the figures for `CC[C@@]1(c2cccc(N(C)c3cnccn3)c2)C2=CN=NC2NC2=C1C(=O)CC(C)(C)C2` (some centres not stated) [US20250313563, Compound 915340] were 1000 to 5000 nM and 100 to 1000 nM.
For the molecule `CC[C@]1(c2cccc(C3=C4CC=CC(F)=C4N=CC3)c2)C2=CN=NC2NC2=C1C(=O)NC(C)(C)C2` (some centres not stated) [US20250313563, Compound 948813], the IC50 in assay [1] was greater than 5000 nM; in assay [2], 1000 to 5000 nM.
The matching figures for `CC1(C)CC(=O)C2=C(C1)NC1=C(CN=N1)C21CCN(S(=O)(=O)c2ccc(C(F)F)cc2)CC1` [US20250313563, Compound 947248]: less than 100 nM and less than 100 nM.
With `CC[C@]1(c2cccc(-c3ccnn3C)c2)C2=CN=NC2NC2=C1C(=O)NC1(CCS(=O)(=O)CC1)C2` (some centres not stated) [US20250313563, Compound 949400], the 50% inhibitory concentration (IC50) in assay [1] is greater than 5000 nM; in assay [2], 1000 to 5000 nM.
Taken in the same sequence, the figures for `CC1(C)CC(=O)C2=C(C1)NC1=C(CN=N1)C21CCN(S(=O)(=O)c2ccc(Cl)c(Cl)c2)CC1` [US20250313563, Compound 945660] were less than 100 nM and less than 100 nM.
Taken in the same sequence, the figures for `CC[C@@]1(c2cccc(Br)c2)C2=CN=NC2NC2=C1C(=O)C[C@@H](C)C2` (some centres not stated) [US20250313563, Compound 810485] were greater than 5000 nM and greater than 5000 nM.
The matching figures for `CC[C@@]1(c2cccc(-c3cc(C(F)(F)F)nn3C)c2)C2=CN=NC2NC2=C1C(=O)NC(C)(C)C2` (some centres not stated) [US20250313563, Compound 952018]: 1000 to 5000 nM and 100 to 1000 nM.
For the molecule `CC(C)c1ccccc1S(=O)(=O)N1CCC2(CC1)C1=C(N=NC1)NC1=C2C(=O)CC(C)(C)C1` [US20250313563, Compound 947473], the IC50 in assay [1] and in assay [2] was 100 to 1000 nM throughout.
On to `CC1(C)CC(=O)C2=C(C1)NC1=C(CN=N1)C21COC2(CN(C(=O)C3CCCC3)C2)C1` (configuration not stated) [US20250313563, Compound 917232], for which the IC50 in assay [1] and in assay [2] was less than 100 nM in each case.
As to `CC[C@@]1(c2cccc(-c3ccncc3F)c2)C2=C(CC(C)(C)CC2=O)NC2N=NC(C(F)(F)F)=C21` (some centres not stated) [US20250313563, Compound 947327], the IC50 in assay [1] is 100 to 1000 nM; in assay [2] it was less than 100 nM.
As for `CCC1(c2cccc(C(F)(F)F)c2)C2=CN=NC2NC2=C1C(=O)N(c1cscn1)CC2` (configuration not stated) [US20250313563, Compound 950777], the IC50 in assay [1] is 100 to 1000 nM; in assay [2], less than 100 nM.
On to `CC[C@@]1(c2cccc(N3C[C@@H](C)[C@H](C)C3)c2)C2=CN=NC2NC2=C1C(=O)CC(C)(C)C2` (some centres not stated) [US20250313563, Compound 924543], for which the concentration for half-maximal inhibition (IC50) in assay [1] was greater than 5000 nM; in assay [2] it was 1000 to 5000 nM.
Consider `CC[C@@]1(c2cc(-c3ccnc(C)c3)ccc2F)C2=CN=NC2NC2=C1C(=O)CC(C)(C)C2` (some centres not stated) [US20250313563, Compound 909213], for which the half-inhibitory concentration (IC50) in assay [1] and in assay [2] was greater than 5000 nM throughout.
In the case of `CC[C@]1(c2cccc(-c3cnn(C)c3C)c2)C2=C(CC(C)(C)NC2=O)NC2N=NC(C)=C21` (some centres not stated) [US20250313563, Compound 945727], the IC50 in assay [1] and in assay [2] was greater than 5000 nM in each case.
In the case of `CCC1(c2cccc(N(C)C(=O)Cc3ccccc3)c2)C2=CN=NC2NC2=C1C(=O)CC(C)(C)C2` (configuration not stated) [US20250313563, Compound 912071], the concentration for half-maximal inhibition (IC50) in assay [1] and in assay [2] was less than 100 nM each time.
With `CC1N=NC2=C1C(C)(c1cccc(C(F)(F)F)c1)C1=C(CC(C)(C)CC1=O)N2` (configuration not stated) [US20250313563, Compound 811556], the 50% inhibitory concentration (IC50) in assay [1] and in assay [2] was less than 100 nM throughout.
Turning to `CC[C@]1(c2cccc(-c3ccncc3CO)c2)C2=CN=NC2NC2=C1C(=O)CC(C)(C)C2` (some centres not stated) [US20250313563, Compound 945469], the IC50 in assay [1] and in assay [2] was less than 100 nM each time.
For `CC[C@@]1(c2cccc(C(F)(F)F)c2)C2=CN=NC2NC2=C1C(=O)N(C)C(C)(C)C2` (some centres not stated) [US20250313563, Compound 826791], the figures for the IC50 in assay [1] and in assay [2] were 1000 to 5000 nM and 100 to 1000 nM, respectively.
The matching figures for `CCC1(c2cccc(-c3ncnn3C)c2)C2=CN=NC2NC2=C1C(=O)CC(C)(C)C2` (configuration not stated) [US20250313563, Compound 943532]: 100 to 1000 nM and less than 100 nM.
With `CC[C@@]1(c2cccc(-c3cc(C)ncc3F)c2)C2=CN=NC2NC2=C1C(=O)NC(C)(C)C2` (some centres not stated) [US20250313563, Compound 947822], the half-maximal inhibitory concentration (IC50) is greater than 5000 nM in assay [1] and 100 to 1000 nM in assay [2].
As to `CC[C@@]1(c2cccc(-c3ccnc(C(F)F)c3)c2)C2=CN=NC2NC2=C1C(=O)CC(C)(C)C2` (some centres not stated) [US20250313563, Compound 943919], the IC50 was 100 to 1000 nM in assay [1] and less than 100 nM in assay [2].
The matching figures for `CC[C@@]1(c2cccc(N3CCCCC3)c2)C2=CN=NC2NC2=C1C(=O)CC(C)(C)C2` (some centres not stated) [US20250313563, Compound 810369]: 100 to 1000 nM and less than 100 nM.
Taken in the same sequence, the figures for `Cc1csc(S(=O)(=O)N2CCC3(CC2)C2=C(N=NC2)NC2=C3C(=O)CC(C)(C)C2)n1` [US20250313563, Compound 947897] were less than 100 nM and less than 100 nM.
For the molecule `CCC1(c2cccc(-c3cc(C)ncc3C)c2)C2=CN=NC2NC2=C1C(=O)CC(C)(C)C2` (configuration not stated) [US20250313563, Compound 913346], the IC50 was 100 to 1000 nM in assay [1] and less than 100 nM in assay [2].
In the case of `CC1(C)CC(=O)C2=C(C1)NC1=C(CN=N1)C21CCOC1` (configuration not stated) [US20250313563, Compound 826713], the half-inhibitory concentration (IC50) in assay [1] and in assay [2] was 100 to 1000 nM throughout.
`CCC1(c2cccc(N(C)c3ccc(C(F)(F)F)nc3)c2)C2=CN=NC2NC2=C1C(=O)CC(C)(C)C2` (configuration not stated) [US20250313563, Compound 932634]: the IC50 in assay [1] is 100 to 1000 nM; in assay [2], less than 100 nM.
The matching figures for `CC[C@]1(c2cccc(-c3cc(C)nn3-c3ccccc3)c2)C2=CN=NC2NC2=C1C(=O)NC(C)(C)C2` (some centres not stated) [US20250313563, Compound 951845]: 100 to 1000 nM and 100 to 1000 nM.
As for `CCC1(c2cccc(-c3ccnc4c3CCC4)c2)C2=CN=NC2NC2=C1C(=O)NC(C)(C)C2` (configuration not stated) [US20250313563, Compound 947676], the results for the IC50 in assay [1] and in assay [2] were 100 to 1000 nM and less than 100 nM, respectively.
Turning to `CC[C@]1(c2cccc(Oc3ncccn3)c2)C2=C(CC(C)(C)NC2=O)NC2N=NC(C(F)(F)F)=C21` (some centres not stated) [US20250313563, Compound 951607], the concentration for half-maximal inhibition (IC50) in assay [1] was < 100 nM and 100 to 1000 nM; in assay [2], less than 100 nM.
Take `CC[C@]1(c2cccc(-c3cc(C)nnc3C)c2)C2=CN=NC2NC2=C1C(=O)NC(C)(C)C2` (some centres not stated) [US20250313563, Compound 949334]: the IC50 is greater than 5000 nM in assay [1] and 1000 to 5000 nM in assay [2].
The matching figures for `Cc1cnccc1[C@H]1CC[C@@]2(CC1)C1=C(N=NC1)NC1=C2C(=O)CC(C)(C)C1` [US20250313563, Compound 949319]: less than 100 nM and less than 100 nM.
Taken in the same sequence, the figures for `CC[C@]1(c2cccc(Oc3cncnc3)c2)C2=CN=NC2NC2=C1C(=O)CC(C)(C)C2` (some centres not stated) [US20250313563, Compound 945933] were less than 100 nM and less than 100 nM.
In the case of `CC[C@@]1(c2cccc(-c3ccnc(N4CCOCC4)c3)c2)C2=CN=NC2NC2=C1C(=O)NC(C)(C)C2` (some centres not stated) [US20250313563, Compound 948825], the IC50 in assay [1] was 1000 to 5000 nM; in assay [2], 100 to 1000 nM.
Regarding `CC[C@@]1(c2cccc(C3CCCC3)c2)C2=CN=NC2NC2=C1C(=O)CC(C)(C)C2` (some centres not stated) [US20250313563, Compound 949399], the IC50 was greater than 5000 nM in assay [1] and 1000 to 5000 nM in assay [2].
